# Experimental data taken from patent publication US20230101273A1, “MESOIONIC INSECTICIDES” (FMC Corporation, priority 2020, published 2023).
# Counter-ions that a name gives are not always drawn.
# Key:
# [1] = system: cotton melon aphid (Aphis gossypii (Glover)); test: Test F: control of cotton melon aphid through contact and/or systemic means; type: in vivo; conditions: 144 h, sprayed at 50 ppm, 6 days, okra plant
# Protocol: (§1) Test compounds were formulated using a solution containing 10% acetone, 90% water and 300 ppm Activator 900 non-ionic surfactant (Loveland Products, Loveland, Colo., USA). The formulated compounds were applied in 1 mL of liquid through an atomizer nozzle positioned 1.27 cm (0.5 inches) above the top of each test unit. Test compounds were sprayed at the rates indicated, and each test was replicated three times.
# […] This was pre-infested with 30-40 insects on a piece of leaf according to the cut-leaf method, and the soil of the test unit was covered with a layer of sand.
# Test compounds were formulated and sprayed at 50 ppm. After spraying, the test units were maintained in a growth chamber for 6 days at 19° C. and 70% relative humidity. Each test unit was then visually assessed for insect mortality.
# [2] = system: green peach aphid (Myzus persicae (Sulzer)); test: Test E: control of green peach aphid through contact and/or systemic means; type: in vivo; conditions: 144 h, sprayed at 50 ppm, 6 days, radish plant
# Protocol: as §1
# For evaluating control of green peach aphid (Myzus persicae (Sulzer)) through contact and/or systemic means, the test unit consisted of a small open container with a 12-15-day-old radish plant inside. This was pre-infested by placing on a leaf of the test plant 30-40 aphids on a piece of leaf excised from a culture plant (cut-leaf method). The aphids moved onto the test plant as the leaf piece desiccated. After pre-infestation, the soil of the test unit was covered with a layer of sand.
# Test compounds were formulated and sprayed at 50 ppm. After spraying of the formulated test compound, each test unit was allowed to dry for 1 hour and then a black, screened cap was placed on top. The test units were held for 6 days in a growth chamber at 19-21° C. and 50-70% relative humidity. Each test unit was then visually assessed for insect mortality.
# [3] = system: corn planthopper (Peregrinus maidis (Ashmead)); test: Test C: control of corn planthopper through contact and/or systemic means; type: in vivo; conditions: 144 h, sprayed at 50 ppm, 6 days, nymphs on corn plant
# Protocol: as §1
# For evaluating control of corn planthopper (Peregrinus maidis (Ashmead)) through contact and/or systemic means, the test unit consisted of a small open container with a 3-4-day-old corn (maize) plant inside. White sand was added to the top of the soil prior to application of the test compound.
# (§2) Test compounds were formulated and sprayed at 50 ppm. After spraying of the formulated test compound, the test units were allowed to dry for 1 h before they were post-infested with ˜15-20 nymphs (18-to-21-day-old). A black, screened cap was placed on the top of each test unit, and the test units were held for 6 days in a growth chamber at 22-24° C. and 50-70% relative humidity. Each test unit was then visually assessed for insect mortality.
# [4] = system: potato leafhopper (Empoasca fabae (Harris)); test: Test D: control of potato leafhopper through contact and/or systemic means; type: in vivo; conditions: 144 h, sprayed at 50 ppm, 6 days, adults on Soleil bean plant
# Protocol: as §1
# For evaluating control of potato leafhopper (Empoasca fabae (Harris)) through contact and/or systemic means, the test unit consisted of a small open container with a 5-6-day-old Soleil bean plant (primary leaves emerged) inside. White sand was added to the top of the soil, and one of the primary leaves was excised prior to application of the test compound.
# as §2, with “1 hour” for “1 h”, “with 5 potato leafhoppers (18-to-21-day-old adults).” for “with ˜15-20 nymphs (18-to-21-day-old).”, “of the” for “of each”, “at 20°” for “at 22-24°”, “and 70%” for “and 50-70%”
melting point,Compound,mortality at 50 ppm [1],mortality at 50 ppm [2],mortality at 50 ppm [3],mortality at 50 ppm [4]
90 to 97 °C,"CCOc1cc(C#CC(C)C)cc(-c2c([O-])[n+](Cc3cnc(Cl)s3)c3c(C)cccn3c2=O)c1 (as salt: salt) [Compound 54, 1-[(2-chloro-5-thiazolyl)methyl]-3-[3-ethoxy-5-(3-methyl-1-butyn-1-yl)phenyl]-2-hydroxy-9-methyl-4-oxo-4H-pyrido[1,2-a]pyrimidinium inner salt]",,,,
,"CCC#Cc1cc(Cl)cc(-c2c([O-])[n+](Cc3cnc(Cl)s3)c3c(C)cccn3c2=O)c1 [Compound 1, 3-[3-(1-butyn-1-yl)-5-chlorophenyl]-1-[(2-chloro-5-thiazolyl)methyl]-2-hydroxy-9-methyl-4-oxo-4H-pyrido[1,2-a]pyrimidinium inner salt]",≥ 80%,≥ 80%,≥ 80%,
,"CCC#Cc1cccc(-c2c([O-])[n+](Cc3cnc(Cl)s3)c3c(C)cccn3c2=O)c1 [Compound 2, 3-[3-(1-butyn-1-yl)phenyl]-1-[(2-chloro-5-thiazolyl)methyl]-2-hydroxy-9-methyl-4-oxo-4H-pyrido[1,2-a]pyrimidinium inner salt]",≥ 80%,≥ 80%,≥ 80%,
,"COc1cc(C#CC2CC2)cc(-c2c([O-])[n+](Cc3cnc(Cl)s3)c3c(C)cccn3c2=O)c1 [Compound 4, 1-[(2-chloro-5-thiazolyl)methyl]-3-[3-(2-cyclopropylethynyl)-5-methoxyphenyl]-2-hydroxy-9-methyl-4-oxo-4H-pyrido[1,2-a]pyrimidinium inner salt]",≥ 80%,≥ 80%,≥ 80%,≥ 80%
,"Cc1cc(C#CC(C)C)cc(-c2c([O-])[n+](Cc3cnc(Cl)s3)c3c(C)cccn3c2=O)c1 [Compound 7, 1-[(2-chloro-5-thiazolyl)methyl]-2-hydroxy-9-methyl-3-[3-methyl-5-(3-methyl-1-butyn-1-yl)phenyl]-4-oxo-4H-pyrido[1,2-a]pyrimidinium inner salt]",≥ 80%,≥ 80%,≥ 80%,≥ 80%
,"Cc1cc(C#CC2CC2)cc(-c2c([O-])[n+](Cc3cnc(Cl)s3)c3c(C)cccn3c2=O)c1 [Compound 11, 1-[(2-chloro-5-thiazolyl)methyl]-3-[3-(2-cyclopropylethynyl)-5-methylphenyl]-2-hydroxy-9-methyl-4-oxo-4H-pyrido[1,2-a]pyrimidinium inner salt]",≥ 80%,≥ 80%,≥ 80%,≥ 80%
,Cc1cccn2c(=O)c(-c3cc(C#CC4CC4)cc(C(C)C)c3)c([O-])[n+](Cc3cnc(Cl)s3)c12 [Compound 14],≥ 80%,≥ 80%,,
,COc1cc(C#CC(C)C)cc(-c2c([O-])[n+](Cc3cnc(Cl)s3)c3c(C)cccn3c2=O)c1 [Compound 18],≥ 80%,≥ 80%,,
,Cc1cccn2c(=O)c(-c3cc(F)cc(C#CC(C)C)c3)c([O-])[n+](Cc3cnc(Cl)s3)c12 [Compound 21],≥ 80%,≥ 80%,,≥ 80%
,Cc1cccn2c(=O)c(-c3cc(C#CC(C)C)cc(C(F)(F)F)c3)c([O-])[n+](Cc3cnc(Cl)s3)c12 [Compound 26],,,,≥ 80%
,Cc1cccn2c(=O)c(-c3cc(F)cc(C#CC4CC4)c3)c([O-])[n+](Cc3cnc(Cl)s3)c12 [Compound 29],,≥ 80%,,
,Cc1cccn2c(=O)c(-c3cc(Cl)cc(C#CC4CC4)c3)c([O-])[n+](Cc3cnc(Cl)s3)c12 [Compound 35],≥ 80%,≥ 80%,,
,"Cc1cccn2c(=O)c(-c3cccc(C#CC4CC4)c3)c([O-])[n+](Cc3cnc(Cl)s3)c12 [Compound 37, 1-[(2-chloro-5-thiazolyl)methyl]-3-[3-(2-cyclopropylethynyl)phenyl]-2-hydroxy-9-methyl-4-oxo-4H-pyrido[1,2-a]pyrimidinium inner salt]",≥ 80%,≥ 80%,≥ 80%,≥ 80%
,"Cc1cccn2c(=O)c(-c3cccc(C#CC(C)C)c3)c([O-])[n+](Cc3cnc(Cl)s3)c12 [Compound 44, 1-[(2-chloro-5-thiazolyl)methyl]-2-hydroxy-9-methyl-3-[3-(3-methyl-1-butyn-1-yl)phenyl]-4-oxo-4H-pyrido[1,2-a]pyrimidinium inner salt]",≥ 80%,≥ 80%,≥ 80%,≥ 80%
,Cc1cccn2c(=O)c(-c3cc(Cl)cc(C#Cc4ccccc4)c3)c([O-])[n+](Cc3cnc(Cl)s3)c12 [Compound 47],≥ 80%,,,≥ 80%
,"CCOc1cc(C#CC2CC2)cc(-c2c([O-])[n+](Cc3cnc(Cl)s3)c3c(C)cccn3c2=O)c1 [Compound 51, 1-[(2-chloro-5-thiazolyl)methyl]-3-[3-(2-cyclopropylethynyl)-5-ethoxyphenyl]-2-hydroxy-9-methyl-4-oxo-4H-pyrido[1,2-a]pyrimidinium inner salt]",≥ 80%,≥ 80%,≥ 80%,
,CC#Cc1cccc(-c2c([O-])[n+](Cc3cnc(Cl)s3)c3c(C)cccn3c2=O)c1 [Compound 61],≥ 80%,,≥ 80%,≥ 80%
,Cc1ccc(-c2c([O-])[n+](Cc3cnc(Cl)s3)c3c(C)cccn3c2=O)cc1C#CC(C)C [Compound 86],≥ 80%,≥ 80%,≥ 80%,≥ 80%
